Here are results for eleven molecules from PMC9820738, “Spectrofluorimetric and Computational Investigation of New Phthalimide Derivatives towards Human Neutrophil Elastase Inhibition and Antiproliferative Activity” (International Journal of Molecular Sciences, 2022).

Like-named read-outs stand apart in the source and are kept apart here. Some results are limits rather than exact numbers.

The target in data set [1] is T1, human neutrophil elastase (HNE) (Homo sapiens, UniProt P08246).
T1 sequence (P08246 30-267): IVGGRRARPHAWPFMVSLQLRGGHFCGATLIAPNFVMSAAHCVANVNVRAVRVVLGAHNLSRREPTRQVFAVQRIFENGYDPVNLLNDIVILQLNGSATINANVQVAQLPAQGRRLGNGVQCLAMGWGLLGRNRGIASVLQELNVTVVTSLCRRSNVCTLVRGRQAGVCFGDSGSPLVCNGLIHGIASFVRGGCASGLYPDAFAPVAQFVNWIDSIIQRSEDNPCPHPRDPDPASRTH
The experiment in a line: Fluorometric human neutrophil elastase (HNE) inhibition assay, MOSuc-AAPV-AMC substrate. It counts as biochemical. Particulars: HNE 20 mU/mL, 25 µM substrate, 0.1 M HEPES pH 7.5, 25 °C, triplicate; read-out: IC50 ± SD, elastase inhibitory activity. Here is the method:
Fluorometric assay for human neutrophil elastase (HNE) inhibition was performed according to the previously presented method with some modifications, using N-methoxysuccinyl-Ala-Ala-Pro-Val-7-amido-4-methyl-coumarin (MOSuc-AAPV-AMC, Calbiochem) as substrate. […] The reaction was carried out in assay buffer containing 0.1 M HEPES (pH 7.5). Briefly, different concentration of tested compounds was incubated with 20 mU/mL of HNE (Bradford) in 25 °C. The reaction was started by addition of 25 µM elastase substrate to final reaction volume 100 µL and monitored for 30 min at 25 °C on a microplate reader (FP-8500 Spectrofluorometer, JASCO, USA) with excitation and emission wavelengths of 380 nm and 440 nm, respectively. By computing the log of inhibitors concentrations versus the percentage of activity, the IC50 values were determined by non-linear regression analysis. Assays were performed in triplicate and data presented as the mean and the standard deviation. Ursolic acid was used as the reference compound.

The subject of data set [2] is MV4-11 human biphenotypic B myelomonocytic leukemia cells. The experiment in a line: In vitro antiproliferative assay, MV4-11. Particulars: for IC50: MV4-11, read-out: IC50 ± SD, antiproliferative activity; for SI BALB/3T3/ MV4-11: IC50 in normal cell line / IC50 in cancer cell line. It is filed as cell-based. On the procedure:
(§1) Cell preparation, in vitro antiproliferative assay, MTT and SRB cytotoxic tests were performed according to literature.

The subject of data set [3] is MDA-MB-231 human breast adenocarcinoma cells. The data set can be described thus: In vitro antiproliferative assay, MDA-MB-231. The settings on record: for IC50: MDA-MB-231, read-out: IC50 ± SD, antiproliferative activity; for SI BALB/3T3/ MDA-MB-231: IC50 in normal cell line / IC50 in cancer cell line. It counts as cell-based. On the procedure: as §1
The test system of data set [4] is UMUC-3 human bladder transitional cell carcinoma cells. The data set can be described thus: In vitro antiproliferative assay, UMUC-3. It counts as cell-based. Particulars: for IC50: UMUC-3, read-out: IC50 ± SD, antiproliferative activity; for SI BALB/3T3/ UMUC-3: IC50 in normal cell line / IC50 in cancer cell line. On the procedure: as §1
The test system of data set [5] is BALB/3T3 normal mouse fibroblast cells. The experiment in a line: In vitro cytotoxicity on normal fibroblasts, BALB/3T3. It is filed as cell-based. The settings on record: BALB/3T3 normal mouse fibroblasts; read-out: IC50 ± SD, antiproliferative activity. On the procedure: as §1
Data set [6] has as its system A549 lung carcinoma cells. The data set can be described thus: In vitro antiproliferative assay, A549. Particulars: for IC50: A549, read-out: IC50 ± SD, antiproliferative activity; for SI BALB/3T3/ A549: IC50 in normal cell line / IC50 in cancer cell line. It is filed as cell-based, human. Here is the method:
as §1

Data set [7] concerns the target T1, human neutrophil elastase (HNE). The data set can be described thus: Kinetic analysis of the inhibition of elastase (Lineweaver–Burk, secondary plots). It is filed as biochemical. Here is the method:
Kinetic studies were conducted in the presence of different concentrations of substrate (5, 25, 50 and 100 µM) and test compound (in the range of 0–10 µM). The reaction conditions were the same as in the HNE inhibition assay and the reaction was monitored for 10 min at 25 °C with the same Ex an Em wavelengths. By Lineweaver–Burk plots, kinetic values such as Michaelis–Menten constants and maximum velocity were determined. Next, two inhibition constants for inhibitor binding with free enzyme or enzyme–substrate complex (Ki and Kis) were obtained by plotting the secondary plot of the slopes of the determined straight lines or vertical intercept versus inhibitor concentration.

Data set [8] is described as follows: Spontaneous hydrolysis (chemical stability) in phosphate buffer, spectrophotometric. It counts as physicochemical. Particulars: 0.05 M phosphate buffer pH 7.3, 25 °C, λ 305 nm. Here is the method: Spontaneous compound hydrolysis studies were performed following the literature procedure. The kinetics hydrolysis of the compounds was evaluated at 25 °C in 0.05 M phosphate buffer, pH 7.3, by measuring changes in absorbance spectra during incubation using a T60U spectrophotometer (PG Instruments). The absorbance (At) at characteristic absorption maxima for each compound was measured at 10 min intervals until there was no further decrease in absorbance (Aꝏ). Using these measurements, semilogarithmic plots of the dependence of log(At–Aꝏ) on time were prepared, and k’ values were determined from the slope of these plots according to the first order reaction kinetics. Half-conversion times were calculated using equation: t1/2 = 0.693/k’.

`NS(=O)(=O)c1ccc(Nc2nc(CCN3C(=O)c4ccccc4C3=O)cs2)cc1` [Compound 4g, 4-(4-(2-(1,3-Dioxoisoindolin-2-yl)ethyl)thiazol-2-ylamino)benzenesulfonamide] came in with a melting point greater than 260 °C. In addition, the IC50 in data set [1] was 64.9 ± 7.75 µM. The IC50 in data set [2] (Homo sapiens) was determined as 83.3 ± 26.6 µM. For the same molecule, the “SI BALB/3T3/ MV4-11” value in data set [2] is on record as 0.17. In data set [3] (Homo sapiens), the IC50 worked out at 9.66 ± 1.4 µM. Also, in data set [3], the “SI BALB/3T3/ MDA-MB-231” value was 1.49. Moreover, the IC50 in data set [4] (Homo sapiens, UMUC3) turned out to be 19.8 ± 1.4 µM. In [4], the “SI BALB/3T3/ UMUC-3” value was found to be 0.72. The half-inhibitory concentration (IC50) in [5] turned out to be 14.3 ± 2.1 µM.

As for `Cc1cc(C)cc(Nc2nc(CCN3C(=O)c4ccccc4C3=O)cs2)c1` [Compound 4f, 2-(2-(2-(3,5-Dimethylphenylamino)thiazol-4-yl)ethyl)isoindoline-1,3-dione], the IC50 was determined as 49.9 ± 0.98 µM in data set [1]; 13.2 ± 4.77 µM in [2] (Homo sapiens); 25.6 ± 3.63 µM in data set [6] (Homo sapiens); 86.4 ± 12.2 µM in [3] (Homo sapiens); 66.5 ± 9.8 µM in data set [4] (Homo sapiens, UMUC3); 101 ± 12.2 µM in data set [5].

For `C[C@H]1[C@H](C)CC[C@]2(C(=O)O)CC[C@]3(C)C(=CC[C@@H]4[C@@]5(C)CC[C@H](O)C(C)(C)[C@@H]5CC[C@]43C)[C@H]12` [Ursolic acid, reference compound], the IC50 in [1] was found to be 5.32 ± 0.68 µM.

As to `O=C1c2ccccc2C(=O)N1CCc1csc(Nc2ccc(Cl)cc2)n1` [Compound 4b, 2-(2-(2-(4-Chlorophenylamino)thiazol-4-yl)ethyl)isoindoline-1,3-dione], the IC50 was 46.5 ± 4.85 µM in data set [1]; 12.2 ± 4.56 µM in data set [2] (Homo sapiens); 18.1 ± 0.94 µM in [6] (Homo sapiens); 86.5 ± 10.7 µM in data set [3] (Homo sapiens); 61.7 ± 1.56 µM in data set [4] (Homo sapiens, UMUC3); 66.2 ± 4.17 µM in [5].

As to `CC(=O)c1ccc(Nc2nc(CCN3C(=O)c4ccccc4C3=O)cs2)cc1` [Compound 4i, 2-(2-(2-(4-Acetylphenylamino)thiazol-4-yl)ethyl)isoindoline-1,3-dione], the IC50 in data set [1] turned out to be 25.6 ± 1.78 µM; in [2] (Homo sapiens), 44.5 ± 20.2 µM; in [6] (Homo sapiens) it was 62.9 ± 5.75 µM; in data set [3] (Homo sapiens), 87.7 ± 22 µM; in data set [4] (Homo sapiens, UMUC3), 74.1 ± 12 µM; in data set [5], 99 ± 21.2 µM.

`O=C1c2ccccc2C(=O)N1CCc1csc(Nc2cccc3ccccc23)n1` [Compound 4e, 2-(2-(2-(Naphthalen-1-ylamino)thiazol-4-yl)ethyl)isoindoline-1,3-dione] registered a melting point of 161 to 162 °C. Besides, the IC50 in [1] is 15.6 ± 0.16 µM. In addition, the concentration for half-maximal inhibition (IC50) in [2] (Homo sapiens) came to 33.2 ± 12 µM. The “SI BALB/3T3/ MV4-11” value in data set [2] is on record as 3.09. Besides, the IC50 in data set [6] (Homo sapiens) turned out to be 41.1 ± 3.13 µM. For the same molecule, the “SI BALB/3T3/ A549” value in data set [6] is recorded as 2.50. In addition, the IC50 in data set [3] (Homo sapiens) was 76.4 ± 11.1 µM. In addition, the “SI BALB/3T3/ MDA-MB-231” value in data set [3] worked out at 1.34. Also, the half-maximal inhibitory concentration (IC50) in [4] (Homo sapiens, UMUC3) was 80 ± 16.2 µM. Also, the “SI BALB/3T3/ UMUC-3” value in data set [4] came out at 1.28. Also, the IC50 in data set [5] is 103 ± 30.7 µM.

`COc1cc(Nc2nc(CCN3C(=O)c4ccccc4C3=O)cs2)cc(OC)c1OC` [Compound 4d, 2-(2-(2-(3,4,5-Trimethoxyphenylamino)thiazol-4-yl)ethyl)isoindoline-1,3-dione]: the half-maximal inhibitory concentration (IC50) in data set [1] came to 22.9 ± 1.59 µM; in data set [2] (Homo sapiens), 8.21 ± 2.37 µM; in data set [6] (Homo sapiens) it was 23.7 ± 5.23 µM; in [3] (Homo sapiens) it was 48.9 ± 13.2 µM; in data set [4] (Homo sapiens, UMUC3), 46.1 ± 7.28 µM; in data set [5], 46.8 ± 2.05 µM.

In turn, `O=C1c2ccccc2C(=O)N1CCc1csc(Nc2ccc(C(F)(F)F)cc2)n1` [Compound 4c, 2-(2-(2-(4-(Trifluoromethyl)phenylamino)thiazol-4-yl)ethyl)isoindoline-1,3-dione] registered a melting point of 170 to 172 °C. Also, in data set [1], the IC50 is 13 µM. Further, the “Inhibition Type” value in data set [7] (Lineweaver–Burk and Dixon analysis) is listed as “mixed type I inhibition”. The molecule further came in with a Ki in data set [7] (inhibitor binding with free enzyme, secondary plot) of 4.54 µM. Further, the 50% inhibitory concentration (IC50) in [2] (Homo sapiens) is 46.6 ± 25.4 µM. For the same molecule, the “SI BALB/3T3/ MV4-11” value in data set [2] was 1.82. The IC50 in [6] (Homo sapiens) stood at 14 ± 1.56 µM. Moreover, the “SI BALB/3T3/ A549” value in data set [6] was found to be 6.07. In data set [3] (Homo sapiens), the IC50 was determined as 77.5 ± 13.7 µM. Also, the “SI BALB/3T3/ MDA-MB-231” value in data set [3] turned out to be 1.10. The IC50 in data set [4] (Homo sapiens, UMUC3) worked out at 75.2 ± 6.71 µM. Besides, in data set [4], the “SI BALB/3T3/ UMUC-3” value was determined as 1.13. For the same molecule, the IC50 in data set [5] was found to be 84.9 ± 18.2 µM. Further, in data set [8], the “k, rate constant of spontaneous hydrolysis” value worked out at 0.018 min⁻¹. In addition, in data set [8] (read-out: t1/2, half-life for the spontaneous hydrolysis), the half-life was determined as 38.5 min.

For the molecule `O=C1c2ccccc2C(=O)N1CCc1csc(Nc2ccc(F)cc2)n1` [Compound 4a, 2-(2-(2-(4-Fluorophenylamino)thiazol-4-yl)ethyl)isoindoline-1,3-dione], the IC50 was 29.4 ± 3.13 µM in data set [1]; 59.6 ± 4.63 µM in data set [2] (Homo sapiens); 50.7 ± 3.32 µM in data set [6] (Homo sapiens); 110 ± 24.5 µM in data set [3] (Homo sapiens); 82.3 ± 2.18 µM in data set [4] (Homo sapiens, UMUC3); 74.2 ± 12.2 µM in [5].

`O=C1c2ccccc2C(=O)N1CCc1csc(Nc2c(Cl)cc(Cl)cc2Cl)n1` [Compound 4h, 2-(2-(2-(2,4,6-Trichlorophenylamino)thiazol-4-yl)ethyl)isoindoline-1,3-dione] showed a melting point of 168 to 169 °C. Also, in data set [1], the IC50 is 16.6 ± 2.06 µM. Further, in data set [2] (Homo sapiens), the IC50 was 48.5 ± 21.4 µM. Moreover, the IC50 in data set [6] (Homo sapiens) was found to be 57.1 ± 19.4 µM. Besides, the IC50 in data set [4] (Homo sapiens, UMUC3) was 120 ± 36 µM.

As for `N.N.[Cl][Pt][Cl]` [cisplatin, reference compound], the IC50 came to 1.43 ± 0.4 µM in [2]; 5.41 ± 0.6 µM in [6]; 15.6 ± 2 µM in [3]; 1.73 ± 0.17 µM in [4]; 8.47 ± 1.96 µM in data set [5].

As usually defined, the IC50 is the concentration at which inhibition is half-maximal. As a reminder, the melting point is the temperature, or range, at which the solid turns liquid. The term Ki denotes the dissociation constant of the complex between target and ligand, obtained from inhibition or displacement. A high value points to weaker binding.
